Data taken from patent publication US6365616B1, “Methimazole derivatives and tautomeric cyclic thiones to treat autoimmune diseases” (Sentron Medical, Inc., priority 1998, dated 2002).
Marks after values point to notes of the source that are not given here.

Tests used:
[1] = system: protein/DNA complex with Fragment 127 of the MHC class I 5′-flanking region; assay: Gel shift (EMSA) with downstream 127 class I probe, extracts from treated FRTL-5 cells; format: cell-based, rat; conditions: 5H cells treated 48 hours
Protocol: Cells were grown in 6H medium with 5 % calf serum for 6-7 days to 70-80% confluence, then shifted to 5H medium with 5 % calf serum for 5 days. TSH (1×10^−10 M), gamma-interferon (100 U/ml), MMI (5 mM), and different concentrations of MMI derivatives or tautomeric cyclic thiones (0.0001 to 10 mM) were added as appropriate for […]. Cells were then harvested and extracts were made by a modification of a method of Dignam, J., et al. Methods in Enzymology, 101:582-598 (1983). In brief, cells were harvested by scraping after being washed twice with cold phosphate-buffer saline (PBS). Subsequently they were pelleted, washed in cold PBS and then pelleted again. The pellet was resuspended in Dignam buffer C (20 mM Hepes buffer at pH 7.9, 1.5 mM MgCl2, 0.42 M NaCl, 25% glycerol, 0.5 mM dithiotreitol (DTT), 0.5 mM phenylmethylsulfonylfluoride (PMSF), 1 […] pepstatin). The final NaCl concentration was adjusted on the basis of cell pellet volume to 0.42 M and cells were lysed by repeated cycles of freezing and thawing. Extracts were then centrifuged at 10,000×g at 4° C. for 20 min. The supernatant was recovered, aliquoted and stored at −70° C.
Binding reactions were performed in a volume of 20 μl for 30 min at room temperature. The typical reaction mixture contained 1.5 fmol of ^32P DNA, 3 μg of cell extracts, 1 to 3 μg of poly (dI-dC) in 10 mM Tris-Cl (pH 7.9), 1 mM MgCl2, 1 mM DTT, 1 mM ethylenediamine tetra acetic acid (EDTA), and 5 % glycerol. After incubation, reaction mixtures were subjected to electrophoresis in 4% polyacrylamide gels for 90-120 min at 160 V in 0.5× TBE (Sambrook, J., et al., Molecular Cloning: A Laboratory Manual, 2nd ed. Cold Spring Harbor Press, NY, 2: 11.23-11.44 (1989)), then dried and autoradiographed. Probes were labeled with [α32P] deoxy CTP by Klenow enzyme (In Vitro labeling kit, Amersham) following the manufacturer's instructions, or by [γ^32P] ATP using T4 polynucleotide kinase. Labeled probes were then purified either through G-50 columns (5 prime→3 Prime) or on an 8% polyacrylamide gel.
FIG. 3 denotes the sequence of the downstream region of the PD1 promoter. The location of enhancer A (−180 to −170 bp), the interferon response element (IRE; −161 to −150 bp), and the cAMP response element (CRE; −107 to −100 bp) are noted. The downstream silencer is between −127 and −80 bp (Saji, et al., ibid, 20096-20107 (1997)). Using a 127 bp probe, −125 to +1 bp, MMI (lane 4) or TSH (lane 10) induce the formation of a rapidly migrating protein/DNA complex (FIG. 4) which is clearly evident 24 to 48 h after SH cells are treated. MMI derivatives can also increase this complex, as illustrated for compound 8 in FIG. 4 (lanes 1 to 3). The time most suitable for measurement is 24 to 48 h (FIG. 4) the complex can be quantitated by comparison to control (lane 7 or 9) using densitometry or the phosphoimager as noted earlier. In this case, the increase over control (set at 1) is measured in arbitrary units relative to the maximal increase induced by 5 mM MMI which is arbitrarily set at 10. The results using all 11 compounds in Table 1, each added to cells at different concentrations 48 hours before extracts were prepared, are summarized in Table 3.

thyroglobulin RNA = assay: Northern analysis of thyroglobulin RNA levels in FRTL-5 cells; format: cell-based, rat; conditions: Table 17, 1 mM
[2] = system: MHC class II antigen expression; assay: Flow cytometry of IFN-increased class II antigen expression in FRTL-5 cells; format: cell-based, rat; conditions: 100 U/ml γ-interferon, 6H medium (TSH), 40 hours
Protocol: […] 13 and 14. Cells were stained with a fluorescein isothiocyanate conjugated class II-specific monoclonal antibody to RT1.B (clone OX-6, Sera Labs, UK) for 60 min at 4° C., washed twice with Dulbecco's phosphate buffered saline, and subjected to laser flow cytometry.
In this experiment 10^6 cells were incubated with MHC class II or MHC class I-specific antibodies as described (Montani, V., et al., ibid (1998b); Saji, M., et al., ibid (1992a); Balducci-Silano, P. L., et al., Endocrinology 139:2309-2313 (1998)). After 30 min on ice, cells were washed with phosphate buffered saline at pH 7.4 and incubated for 30 min with fluorescein-isothiocyanate (FITC)-conjugated antibodies then analyzed by flow cytometry on a FACScan Cytometer using CellQuest software (Becton Dickinson).
The concentration needed to achieve suppression of the interferon induced class I or class II surface expression was determined by testing different concentrations of the compounds (Table 18). Like all other assays, the order of effectiveness was compound 10>11>7 or 8>2>MMI>3.

MHC class II RNA = assay: Northern analysis of MHC class II RNA levels in FRTL-5 cells; format: cell-based, rat; conditions: 100 U/ml γ-interferon, 6H medium, 40 hours
(NZB x NZW)F1 mice = assay: Prevention of proteinuria (SLE model) in female (NZB x NZW)F1 mice; format: in vivo; conditions: for Animals with proteinuria, 30-500 (mg/dl proteinuria) / Animals with proteinuria, >500 (mg/dl proteinuria) / Animals with proteinuria, Neg-Trace (mg/dl proteinuria): 0.05% MMI, 0.01% 5-phenylmethimazole, 0.05% 2-mercaptoimidazole
From the text: Female (NZB x NZW)F1 mice were obtained from Jackson Labs. Animals were followed with AMES 2855 Uristix (Miles) to semiquantitatively measure proteinuria. Proteinuria was taken as a measure of development of SLE and MMI suppression of proteinuria as suppression of renal complexes in kidney (Mozes et al., J. Clin Immunology 18:106-113 (1998)). At 7-8 mos. mice develop proteinuria reflecting renal disease. Treatment was from 2 mos to 6 mos of age. Treatment was oral. Each group had 8 animals to start.
In this experiment, immunohistology was performed in a blind fashion on 5 μm thick frozen kidney sections which were fixed and stained with FITC-conjugated goat antibodies to immunoglobulin G (γ chain specific) as described (Mozes, et al., Science 261:91-93 (1993); Mozes, E., et al., ibid (1998)). Compound 10, a tautomeric cyclic thione, and MMI are effective in preventing SLE in this experimental model.
Death of some animals in this experiment occurred for technical reasons, i.e. flooding of cages, handling, etc., in the last 2 mos. However, losses in the control group were similar to experimental groups. MMI, 2-mercaptoimidazole, and Compound 10 treatments were administered during the period between 2 and 6.25 months of age.

Cn1c(-c2ccccc2)cnc1S [Compound 10, 5-Phenylmethimazole]
% increase over control relative to the maximal (5 mM) MMI-increased silencer complex which is set at 10 ([1]; 10 μM): 3 ± 1.5%
% increase over control relative to the maximal (5 mM) MMI-increased silencer complex which is set at 10 ([1]; 100 μM): 7 ± 1%
% increase over control relative to the maximal (5 mM) MMI-increased silencer complex which is set at 10 ([1]; 1 mM): 10 ± 1%
increase of TG RNA levels compared with MMI (thyroglobulin RNA): no comparable increase
Concentration to inhibit IFN-increased antigen expression, Class II [2]: 54 ± 11 µM
% inhibition of class II RNA expression (MHC class II RNA; 100 μM): 75 ± 15%
% inhibition of class II RNA expression (MHC class II RNA; 1 mM): 87 ± 4%
Animals with proteinuria, 30-500 (mg/dl proteinuria) ((NZB x NZW)F1 mice; 6 mos, oral): 0 of 8
Animals with proteinuria, >500 (mg/dl proteinuria) ((NZB x NZW)F1 mice; 6 mos, oral): 0 of 8
Animals with proteinuria, Neg-Trace (mg/dl proteinuria) ((NZB x NZW)F1 mice; 6 mos, oral): 8 of 8
Animals with proteinuria, 30-500 (mg/dl proteinuria) ((NZB x NZW)F1 mice; 7.5 mos, oral): 1 of 6
Animals with proteinuria, >500 (mg/dl proteinuria) ((NZB x NZW)F1 mice; 7.5 mos, oral): 0 of 6
Animals with proteinuria, Neg-Trace (mg/dl proteinuria) ((NZB x NZW)F1 mice; 7.5 mos, oral): 5 of 6*
significant numbers of immune complexes in kidneys (FIG. 15) ((NZB x NZW)F1 mice; immunohistology of frozen kidney sections): not true
toxicity in vivo ((NZB x NZW)F1 mice; one-fifth the MMI concentration, NZB and NOD mouse experiments): nontoxic
development of proteinuria at 7.5 mos ((NZB x NZW)F1 mice; oral, compound 10 at a fifth the MMI concentration): significantly prevented proteinuria
